Results reported in PubChem BioAssay AID248 (DTP/NCI, 2004).
Inconclusive results and toxic doses are left out.

Test system: L1210 leukemia ip in BDF1 mice, survival T/C
Test: NCI In Vivo Anticancer Drug Screen. Data for tumor model L1210 Leukemia (intraperitoneal) in B6D2F1 (BDF1) mice
Settings: endpoint: mean survival time, higher = longer survival
Outline: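 Value reflects the ratio of survival in compound-treated mice to survival in vehicle-treated controls, with both groups carrying the same transplanted tumor.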

[1] = dose: 100.0 mg/kg/injection, schedule: Q01DX009 (ip), vehicle: Klucel (hydroxypropylcellulose) (HPC)
[2] = dose: 100.0 mg/kg/injection, schedule: Q04DX003 (ip), vehicle: Klucel (hydroxypropylcellulose) (HPC)
[3] = dose: 200.0 mg/kg/injection, schedule: Q04DX003 (ip), vehicle: Klucel (hydroxypropylcellulose) (HPC)
[4] = dose: 400.0 mg/kg/injection, schedule: Q04DX003 (ip), vehicle: Klucel (hydroxypropylcellulose) (HPC)
[5] = dose: 100.0 mg/kg/injection, schedule: Q04DX003 (ip), vehicle: saline with Tween-80
[6] = dose: 200.0 mg/kg/injection, schedule: Q04DX003 (ip), vehicle: saline with Tween-80
[7] = dose: 400.0 mg/kg/injection, schedule: Q04DX003 (ip), vehicle: saline with Tween-80
[8] = dose: 100.0 mg/kg/injection, schedule: Q01DX001 (ip), vehicle: carboxymethylcellulose (CMC)
[9] = dose: 12.5 mg/kg/injection, schedule: Q01DX009 (ip), vehicle: Klucel (hydroxypropylcellulose) (HPC)
[10] = dose: 25.0 mg/kg/injection, schedule: Q01DX009 (ip), vehicle: Klucel (hydroxypropylcellulose) (HPC)

## CCOC(=O)c1c2c3c(c(Br)cc(C)c3[nH]c1=O)C(=O)c1ccccc1-2
dose: 50.0 mg/kg/injection, schedule: Q01DX009 (ip), vehicle: saline with Tween-80
  T/C: 97 % of control
dose: 100.0 mg/kg/injection, schedule: Q01DX009 (ip), vehicle: saline with Tween-80
  T/C: 101 % of control
dose: 200.0 mg/kg/injection, schedule: Q01DX009 (ip), vehicle: saline with Tween-80
  T/C: 101 % of control

## COc1ccc2c(n1)Sc1c(N)nc(N)nc1N2
[1]
  T/C: 103 % of control
dose: 200.0 mg/kg/injection, schedule: Q01DX009 (ip), vehicle: Klucel (hydroxypropylcellulose) (HPC)
  T/C: 103 % of control
dose: 400.0 mg/kg/injection, schedule: Q01DX009 (ip), vehicle: Klucel (hydroxypropylcellulose) (HPC)
  T/C: 88 % of control

## C/C=C/C1CCCCC1
dose: 50.0 mg/kg/injection, schedule: Q01DX009 (ip), vehicle: saline
  T/C: 97 % of control
dose: 100.0 mg/kg/injection, schedule: Q01DX009 (ip), vehicle: saline
  T/C: 97 % of control
dose: 200.0 mg/kg/injection, schedule: Q01DX009 (ip), vehicle: saline
  T/C: 93 % of control

## O=C1c2ccccc2C(c2ccccc2)(N(CCCl)CCCl)N1C1CCCCC1 (stereo unspecified)
[2]
  T/C: 103 % of control
[3]
  T/C: 102 % of control
[4]
  T/C: 97 % of control

## CC(=O)OC1CCC2(C)C(=CC(=O)C3C2CCC2(C)C(C(C)CCCC(C)C)CCC32)C1 (stereo unspecified)
dose: 100.0 mg/kg/injection, schedule: Q01DX009 (sc), vehicle: steriod suspending solution
  T/C: 108 % of control
dose: 100.0 mg/kg/injection, schedule: Q04DX003 (sc), vehicle: steriod suspending solution
  T/C: 91 % of control
dose: 200.0 mg/kg/injection, schedule: Q01DX009 (sc), vehicle: steriod suspending solution
  T/C: 110 % of control
dose: 200.0 mg/kg/injection, schedule: Q04DX003 (sc), vehicle: steriod suspending solution
  T/C: 91 % of control
dose: 400.0 mg/kg/injection, schedule: Q01DX009 (sc), vehicle: steriod suspending solution
  T/C: 115 % of control
dose: 400.0 mg/kg/injection, schedule: Q04DX003 (sc), vehicle: steriod suspending solution
  T/C: 102 % of control

## O=NN1CCCCC1
dose: 50.0 mg/kg/injection, schedule: Q01DX001 (ip), vehicle: saline
  T/C: 93 % of control
dose: 100.0 mg/kg/injection, schedule: Q01DX001 (ip), vehicle: saline
  T/C: 104 % of control
dose: 200.0 mg/kg/injection, schedule: Q01DX001 (ip), vehicle: saline
  T/C: 96 % of control

## CC(C)NC(=O)CS(=O)(=O)c1ccc(N)cc1
[5]
  T/C: 97 % of control
[6]
  T/C: 97 % of control
[7]
  T/C: 95 % of control

## CN(C)N1CCC2(CCC(C(C)(C)C)CC2)CC1
dose: 50.0 mg/kg/injection, schedule: Q01DX001 (ip), vehicle: carboxymethylcellulose (CMC)
  T/C: 101 % of control
[8]
  T/C: 95 % of control

## OC(c1ccccc1)(c1ccc(-c2ccccc2)cc1)c1cccc2ccccc12 (stereo unspecified)
dose: 75.0 mg/kg/injection, schedule: Q01DX001 (ip), vehicle: saline
  T/C: 92 % of control
dose: 150.0 mg/kg/injection, schedule: Q01DX001 (ip), vehicle: saline
  T/C: 92 % of control
dose: 300.0 mg/kg/injection, schedule: Q01DX001 (ip), vehicle: saline
  T/C: 91 % of control

## CCCCOC(=O)c1cccc2c1-c1ccccc1C2=O
dose: 100.0 mg/kg/injection, schedule: Q01DX001 (ip), vehicle: other
  T/C: 86 % of control
dose: 200.0 mg/kg/injection, schedule: Q01DX001 (ip), vehicle: other
  T/C: 93 % of control
dose: 400.0 mg/kg/injection, schedule: Q01DX001 (ip), vehicle: other
  T/C: 91 % of control

## N#C/C(=N\N=Nc1ccccc1)c1cccc2ccccc12
dose: 100.0 mg/kg/injection, schedule: Q01DX009 (ip), vehicle: gum acacia
  T/C: 94 % of control
dose: 200.0 mg/kg/injection, schedule: Q01DX009 (ip), vehicle: gum acacia
  T/C: 91 % of control

## CC(C)Oc1ccc2c(c1)N(CCC1CCCCN1)c1ccccc1S2 (stereo unspecified)
[9]
  T/C: 101 % of control
[10]
  T/C: 103 % of control

## CC[Si](C)(C)c1ccc(CCN2CC2)s1
[8]
  T/C: 113 % of control

## CCO/C=C1\SC(=S)N(c2ccc(O)cc2)C1=O
[9]
  T/C: 103 % of control
[10]
  T/C: 101 % of control
dose: 50.0 mg/kg/injection, schedule: Q01DX009 (ip), vehicle: Klucel (hydroxypropylcellulose) (HPC)
  T/C: 105 % of control
[1]
  T/C: 103 % of control
dose: 100.0 mg/kg/injection, schedule: Q01DX009 (ip), vehicle: other
  T/C: 104 % of control
[2]
  T/C: 98 % of control
dose: 100.0 mg/kg/injection, schedule: Q04DX003 (ip), vehicle: saline sonified
  T/C: 96 % of control
dose: 200.0 mg/kg/injection, schedule: Q01DX009 (ip), vehicle: other
  T/C: 108 % of control
[3]
  T/C: 98 % of control
dose: 200.0 mg/kg/injection, schedule: Q04DX003 (ip), vehicle: saline sonified
  T/C: 97 % of control
[4]
  T/C: 89 % of control
dose: 400.0 mg/kg/injection, schedule: Q04DX003 (ip), vehicle: saline sonified
  T/C: 99 % of control

## NNc1n[nH]c(=O)n1N
[2]
  T/C: 113 % of control
[3]
  T/C: 100 % of control

## COc1ccc(OC)c(C(=O)CCCC(=O)O)c1
dose: 100.0 mg/kg/injection, schedule: Q01DX009 (ip), vehicle: acetone
  T/C: 91 % of control
[5]
  T/C: 96 % of control
dose: 200.0 mg/kg/injection, schedule: Q01DX009 (ip), vehicle: acetone
  T/C: 86 % of control
[6]
  T/C: 89 % of control
dose: 400.0 mg/kg/injection, schedule: Q01DX009 (ip), vehicle: acetone
  T/C: 90 % of control
[7]
  T/C: 91 % of control

## CC(=O)OC1COC(NC(=O)N(CCCl)N=O)C(OC(C)=O)C1OC(C)=O (stereo unspecified)
dose: 9.0 mg/kg/injection, schedule: Q01DX001 (ip), vehicle: saline with Tween-80
  T/C: 211 % of control
dose: 13.0 mg/kg/injection, schedule: Q01DX001 (ip), vehicle: saline with Tween-80
  T/C: 284 % of control
dose: 20.0 mg/kg/injection, schedule: Q01DX001 (ip), vehicle: saline with Tween-80
  T/C: 459 % of control
dose: 30.0 mg/kg/injection, schedule: Q01DX001 (ip), vehicle: saline with Tween-80
  T/C: 294 % of control

## CSC(N)=NC1CCCCC1
dose: 6.25 mg/kg/injection, schedule: Q01DX009 (ip), vehicle: saline
  T/C: 103 % of control
dose: 12.5 mg/kg/injection, schedule: Q01DX009 (ip), vehicle: saline
  T/C: 107 % of control
dose: 12.5 mg/kg/injection, schedule: Q04DX002 (ip), vehicle: saline
  T/C: 109 % of control
dose: 25.0 mg/kg/injection, schedule: Q01DX009 (ip), vehicle: saline
  T/C: 100 % of control
dose: 25.0 mg/kg/injection, schedule: Q04DX002 (ip), vehicle: saline
  T/C: 105 % of control
